Consider eight molecules from PubChem BioAssay (NCI).

Among the test systems are K-562 leukemia; MALME-3M melanoma; OVCAR-4 ovarian; SN12C renal; KM12 colon; SNB-75 CNS; EKVX NSCLC; T-47D breast; NCI-H23 lung; SF-539 CNS.
What all share (assay): inhibition of tumour cell growth, NCI panel, 48 h

Several values for one entry are separate records, joined by “and”; a condition that tells them apart may be missing. Equal values may be shown once.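 Grown in 96-well plates, cells were treated for 48 hours with each compound at five concentrations. Insufficient inhibition: endpoint recorded as highest concentration tested. Abbreviation: GI50, concentration required for 50% inhibition of growth. TGI is the concentration that stops growth completely.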 Some results are limits rather than exact numbers.

In the case of `CCN(CC)CCCC(C)Nc1ccnc2cc(Oc3ccccc3)ccc12` (stereo not given), the GI50 in the assay on K-562 leukemia is 1870 nM and 2560 nM; in the assay with MALME-3M melanoma, 6030 nM and 2290 nM; in the assay with OVCAR-4 ovarian, 9780 nM and 16000 nM; with SN12C renal, 9.08 µM and 19.6 µM; with KM12 colon, 8.52 µM and 10.6 µM; in the assay with SNB-75 CNS it was 2040 nM and 10900 nM. Moreover, the GI50 in the assay on EKVX NSCLC was 14.1 µM and 18.6 µM; in the assay on T-47D breast, 1680 nM and 2390 nM; in the assay with NCI-H23 lung it was 10400 nM and 22800 nM; in the assay on SF-539 CNS, 2150 nM and 2000 nM. Besides, the TGI in the assay with K-562 leukemia was 4.88 µM and 7.92 µM; in the assay on MALME-3M melanoma, 12.3 µM and 4.47 µM; with OVCAR-4 ovarian it was 41.7 µM and 59.2 µM; in the assay on SN12C renal, 39.5 µM and > 100 µM; with KM12 colon, 24.3 µM and > 100 µM; in the assay with SNB-75 CNS, 15.1 µM and 25.4 µM. Also, the TGI is 31.8 µM and 98.7 µM in the assay with EKVX NSCLC; 3.32 µM and 6.19 µM with T-47D breast; 28.7 µM and > 100 µM in the assay with NCI-H23 lung; 4.35 µM and 4.28 µM with SF-539 CNS.

Consider `Cc1c(C(N)=O)sc2c1C(=O)N(Cc1ccccc1)C1=NN=C(c3ccc(Cl)cc3)CN12`, for which the GI50 with K-562 leukemia is 2970 nM; in the assay on MALME-3M melanoma, 3290 nM; with OVCAR-4 ovarian, 2810 nM; in the assay on SN12C renal it was 3.42 µM; with KM12 colon it was 4.07 µM; in the assay on SNB-75 CNS, 10600 nM. In addition, the GI50 with EKVX NSCLC is 4.7 µM; in the assay with T-47D breast, 3820 nM; in the assay with NCI-H23 lung, 3860 nM; in the assay on SF-539 CNS, 3390 nM. The TGI with K-562 leukemia was above 100 µM; with MALME-3M melanoma it was 16.4 µM; in the assay with OVCAR-4 ovarian, 15.8 µM; in the assay on SN12C renal, 15.6 µM; in the assay with KM12 colon, 16.6 µM; with SNB-75 CNS it was 23.7 µM. Moreover, the TGI in the assay on EKVX NSCLC is 29.8 µM; in the assay on T-47D breast, 16.4 µM; with NCI-H23 lung, 19.4 µM; in the assay with SF-539 CNS, 11 µM.

`CC(C)(C)OC(=O)N1CCN(CCn2cc(C(F)(F)F)c3c(Cl)ncnc32)CC1`: the GI50 with K-562 leukemia was 3220 nM; in the assay on MALME-3M melanoma it was 13300 nM; with OVCAR-4 ovarian, 13200 nM; with SN12C renal, 4.05 µM; in the assay with KM12 colon it was 16.9 µM; in the assay on SNB-75 CNS it was 16200 nM. In addition, the GI50 in the assay on EKVX NSCLC is 11.3 µM; with T-47D breast, 11500 nM; in the assay with NCI-H23 lung, 2000 nM; in the assay on SF-539 CNS, 12800 nM. For the same molecule, the TGI with K-562 leukemia is 14.1 µM; in the assay with MALME-3M melanoma, 27.7 µM; in the assay on OVCAR-4 ovarian, 26.7 µM; with SN12C renal it was 15.1 µM; in the assay on KM12 colon, 35.3 µM; in the assay with SNB-75 CNS, 32.9 µM. The TGI with EKVX NSCLC was 25.7 µM; in the assay on T-47D breast, 34.5 µM; with NCI-H23 lung it was 4.32 µM; with SF-539 CNS it was 26.1 µM.

Consider `CN(CCCn1c2c(c3ccccc3c1=O)C(=O)c1ccccc1-2)CCCn1c2c(c3ccccc3c1=O)C(=O)c1ccccc1-2`, for which the GI50 in the assay on K-562 leukemia was 335 nM; in the assay on MALME-3M melanoma it was 1080 nM; with OVCAR-4 ovarian, 2260 nM; with KM12 colon it was 0.15 µM; in the assay on SNB-75 CNS, 1740 nM; in the assay on EKVX NSCLC, 23.5 µM. For the same molecule, the figures for the GI50 in the assay on T-47D breast, with NCI-H23 lung and in the assay with SF-539 CNS were 259 nM, 249 nM and 181 nM, respectively. In addition, the TGI was 28.4 µM in the assay on MALME-3M melanoma; above 100 µM in the assay with OVCAR-4 ovarian; 1.05 µM in the assay with KM12 colon; 5.21 µM with SNB-75 CNS; above 100 µM with EKVX NSCLC; 18.3 µM in the assay with T-47D breast. The results for the TGI in the assay with NCI-H23 lung and in the assay on SF-539 CNS were 5.25 µM and 0.75 µM, respectively.

Take `COc1ccc(C(=O)OC2C(OC3C(O)COC(O[C@H]4C[C@H]5[C@@H]6CC=C7C[C@@H](O)CC[C@]7(C)[C@H]6CC[C@]5(C)[C@H]4[C@H](C)C(=O)CCC(C)C)C3OC(N)=O)OCC(O)C2O)cc1` (stereo not given in full): the GI50 in the assay with K-562 leukemia is 9.24 nM; with MALME-3M melanoma, 182 nM; in the assay with OVCAR-4 ovarian it was 475 nM; with SN12C renal, 2.61 µM; with KM12 colon, 0.175 µM; in the assay with SNB-75 CNS, below 3 nM. The GI50 in the assay on EKVX NSCLC is 0.102 µM; in the assay with T-47D breast it was 50.1 nM; with NCI-H23 lung it was 375 nM; in the assay with SF-539 CNS it was below 3 nM. The TGI in the assay with K-562 leukemia turned out to be 0.3 µM; in the assay with MALME-3M melanoma, 1.55 µM; with OVCAR-4 ovarian, 5.26 µM; in the assay on SN12C renal, 7.04 µM; in the assay on KM12 colon, 4.37 µM; with SNB-75 CNS, 3.87 µM. Besides, the TGI with EKVX NSCLC stood at 4.1 µM; with T-47D breast, 2.02 µM; with NCI-H23 lung it was 4.81 µM; in the assay on SF-539 CNS it was 0.0685 µM.

Consider `COc1c(C)c2c(c(O)c1C/C=C(\C)CCC(=O)O)C(=O)OC2`, for which the GI50 is 123 nM in the assay on K-562 leukemia; 714 nM in the assay with MALME-3M melanoma; 776 nM in the assay with OVCAR-4 ovarian; 0.499 µM with SN12C renal; 0.374 µM in the assay with KM12 colon; 938 nM with SNB-75 CNS. The GI50 was 0.892 µM in the assay on EKVX NSCLC, 663 nM in the assay on T-47D breast, 282 nM with NCI-H23 lung and 491 nM in the assay with SF-539 CNS. Besides, the TGI with K-562 leukemia, in the assay with MALME-3M melanoma, with OVCAR-4 ovarian, with SN12C renal, in the assay with KM12 colon and in the assay on SNB-75 CNS was above 100 µM each time. Also, the TGI in the assay on EKVX NSCLC, in the assay on T-47D breast, with NCI-H23 lung and with SF-539 CNS was above 100 µM each time.

For `c1ccc2[nH]c(-c3ccc(-c4nccc5c4[nH]c4ccccc45)cc3)nc2c1`, the GI50 with K-562 leukemia is 2340 nM; in the assay with MALME-3M melanoma it was 1850 nM; in the assay on OVCAR-4 ovarian, 2270 nM; in the assay with KM12 colon, 3.59 µM; in the assay on SNB-75 CNS it was 1570 nM; with EKVX NSCLC, 3.45 µM. Moreover, the GI50 in the assay with T-47D breast was 2020 nM; in the assay with NCI-H23 lung, 3470 nM; in the assay on SF-539 CNS, 1890 nM. For the same molecule, the TGI with K-562 leukemia was found to be 5.47 µM; in the assay with MALME-3M melanoma, 3.61 µM; in the assay with OVCAR-4 ovarian, 7.75 µM; with KM12 colon it was 15.7 µM; in the assay on SNB-75 CNS, 4.07 µM; in the assay with EKVX NSCLC, 16.8 µM. The results for the TGI in the assay with T-47D breast, in the assay on NCI-H23 lung and in the assay on SF-539 CNS were 6.19 µM, 17.7 µM and 3.68 µM, respectively.

In the case of `N#CC(NC12CC3CC(CC(C3)C1)C2)c1ccc2c(c1)OCO2` (stereo not given), the TGI with K-562 leukemia, in the assay on MALME-3M melanoma, in the assay with OVCAR-4 ovarian, with SN12C renal, in the assay on KM12 colon and in the assay with SNB-75 CNS was above 100 µM throughout. For the same molecule, the TGI with EKVX NSCLC, in the assay on T-47D breast, in the assay with NCI-H23 lung and in the assay with SF-539 CNS was above 100 µM throughout.
